# Measurements as given in patent publication US8748476B2, “Darifenacin for use in the treatment of urgency induced by overactive bladder” (Warner Chilcott Company, LLC, priority 2002, dated 2014).
# Marks after values point to notes of the source that are not given here.
# How the values were obtained:
# [1] = system: OAB Wet patients (subjects with a diagnosis of overactive bladder); assay: Clinical Study 1: multicentre trial, diary record of urgency episodes and severity of urgency (VAS); assay type: in vivo, human; settings: for No of episodes of urgency/day, Median change from baseline / No of episodes of urgency/day, Median % Change from baseline: 12 weeks of treatment; for No of episodes of urgency/day, Median change from baseline: placebo −1.2; for No of episodes of urgency/day, Median % Change from baseline: placebo −15.7; for No of episodes of urgency/day, Median difference from placebo / Severity of urgency/day, Median difference from placebo: corrected for placebo; for No of episodes of urgency/day, Median difference from placebo / Severity of urgency/day, Median change from baseline / Severity of urgency/day, Median difference from placebo: 12 weeks; for Severity of urgency/day, Median change from baseline: visual analogue scale (mild to severe), placebo −3.9; for Severity of urgency/day, Median difference from placebo: visual analogue scale
# Protocol: Two novel methods for the assessment of urgency were used. The first was for use in a large scale clinical trial, and the second was for use in clinical laboratory studies. In both of these studies, darifenacin was administered as its hydrobromide salt. It was presented in slow release matrix tablets of the type described in U.S. Pat. No. 6,106,864, particularly Example 3. Tablets were administered once daily (o.d.). In this study, OAB Wet patients recorded each episode of urgency per day and the overall severity of urgency for each day in a diary. The severity of urgency was recorded by the use of a visual analogue scale (VAS) where the anchor points were mild and severe. Darifenacin (as hydrobromide salt; 7.5 mg, 15 mg and 30 mg of the active moiety, o.d.) and placebo were evaluated in subjects with a diagnosis of overactive bladder in a multicentre trial and symptoms of urgency were assessed using the VAS at baseline and at the end of the study (12 weeks of treatment). 108 patients (14 male, 94 female) received 7.5 mg; 107 patients (15 male, 92 female) received 15 mg; 114 patients (16 male, 98 female) received 30 mg; and 108 patients (18 male, 90 female) received placebo.
# [2] = system: subjects with symptoms of urgency (mixture of OAB Wet and OAB Dry sufferers); assay: Clinical Study 2: warning time between onset of urgency and need to micturate, measured with a modified stop-watch; assay type: in vivo, human
# Protocol: Two novel methods for the assessment of urgency were used. The first was for use in a large scale clinical trial, and the second was for use in clinical laboratory studies. In both of these studies, darifenacin was administered as its hydrobromide salt. It was presented in slow release matrix tablets of the type described in U.S. Pat. No. 6,106,864, particularly Example 3. Tablets were administered once daily (o.d.). This study used a novel method for measuring the time between the first onset of the urgency and the need to micturate, which is known as the ‘warning time’. A modified stop-watch was used which required the subject to press a button at the onset of urge and a second button when they felt they needed to micturate. Darifenacin (as the hydrobromide salt; 30 mg o.d.) and placebo were evaluated in subjects with symptoms of urgency. The subjects were a mixture of OAB Wet and OAB Dry sufferers. The ‘warning time’ was assessed at baseline and following 2 weeks of treatment using the modified stop watch. 36 patients (29 female, 7 male) received darifenacin; and 36 patients (22 female, 14 male) received placebo.
# [3] = 15 mg o.d., baseline 8.6, P < 0.05
# [4] = 30 mg o.d., baseline 8.4, P < 0.001
# [5] = 7.5-30 mg, effect significantly greater than that produced by placebo
# [6] = 15 mg o.d., baseline 56.2, P < 0.05
# [7] = 30 mg o.d., baseline 53.5, P < 0.05
# [8] = 30 mg o.d., 2 weeks of treatment
compound,measurement,setting,value
"NC(=O)C(c1ccccc1)(c1ccccc1)[C@@H]1CCN(CCc2ccc3c(c2)CCO3)C1 [Darifenacin, (S)-2-(1-[2-(2,3-dihydrobenzofuran-5-yl)ethyl]-3-pyrrolidinyl)-2,2-diphenyl-acetamide]","No of episodes of urgency/day, Median change from baseline","[1]; 7.5 mg o.d., baseline 8.5",−1.8 episodes of urgency/day
same,"No of episodes of urgency/day, Median % Change from baseline",[1]; 7.5 mg o.d.,−29.2%
same,"No of episodes of urgency/day, Median change from baseline",[1]; [3],−2.3* episodes of urgency/day
same,"No of episodes of urgency/day, Median % Change from baseline",[1]; 15 mg o.d.,−26.9%
same,"No of episodes of urgency/day, Median change from baseline",[1]; [4],−3*** episodes of urgency/day
same,"No of episodes of urgency/day, Median % Change from baseline",[1]; 30 mg o.d.,−33.1%
same,Effect on number of episodes of urgency,[1]; [5],dose-related reduction
same,Effect on overall severity of urgency,[1]; [5],dose-related reduction
same,Effect on the symptom of urgency in subjects with overactive bladder (conclusion),[1]; conclusion drawn from both clinical studies,clinically significant attenuation
same,"No of episodes of urgency/day, Median difference from placebo","[1]; 7.5 mg o.d., baseline 8.5",−0.5 episodes of urgency/day
same,"No of episodes of urgency/day, Median difference from placebo",[1]; [3],−1.1* episodes of urgency/day
same,"No of episodes of urgency/day, Median difference from placebo",[1]; [4],−1.4*** episodes of urgency/day
same,"Severity of urgency/day, Median change from baseline","[1]; 7.5 mg o.d., baseline 53.2",−7
same,"Severity of urgency/day, Median change from baseline",[1]; [6],−7*
same,"Severity of urgency/day, Median change from baseline",[1]; [7],−9.4*
same,"Severity of urgency/day, Median difference from placebo","[1]; 7.5 mg o.d., baseline 53.2",−2.5
same,"Severity of urgency/day, Median difference from placebo",[1]; [6],−3.8*
same,"Severity of urgency/day, Median difference from placebo",[1]; [7],−5.5*
same,Effect on warning time compared with placebo,[2]; [8],significant increase
same,"Warning time, Median difference from placebo",[2]; [8],4.3 min
same,"Warning Time, Week 2 (Median)","[2]; 30 mg o.d., 2 weeks of treatment, baseline median 4.7, placebo week 2 4.1, P < 0.01",8.4** Min
same,Response of OAB Wet and OAB Dry subjects,[2]; both OAB Wet and OAB Dry subjects,responded to treatment
